Measured values published in ChEMBL document CHEMBL1137514, “Synthesis and biological evaluation of non-peptide alpha(v)beta(3)/alpha(5)beta(1) integrin dual antagonists containing 5,6-dihydropyridin-2-one scaffolds” (Bioorg Med Chem, 2007).
Residues, ends and D or L forms follow the SMILES beside them.

How the values were obtained:
Integrin alpha-V/beta-3 = Integrin alpha-V/beta-3 (Homo sapiens, UniProt P05106+P06756); experiment: Inhibition of integrin alpha-V-beta-3-mediated SK-MEL-24 cell adhesion to fibronectin
Sequence of Integrin alpha-V/beta-3 (P05106 27-788 limits assumed): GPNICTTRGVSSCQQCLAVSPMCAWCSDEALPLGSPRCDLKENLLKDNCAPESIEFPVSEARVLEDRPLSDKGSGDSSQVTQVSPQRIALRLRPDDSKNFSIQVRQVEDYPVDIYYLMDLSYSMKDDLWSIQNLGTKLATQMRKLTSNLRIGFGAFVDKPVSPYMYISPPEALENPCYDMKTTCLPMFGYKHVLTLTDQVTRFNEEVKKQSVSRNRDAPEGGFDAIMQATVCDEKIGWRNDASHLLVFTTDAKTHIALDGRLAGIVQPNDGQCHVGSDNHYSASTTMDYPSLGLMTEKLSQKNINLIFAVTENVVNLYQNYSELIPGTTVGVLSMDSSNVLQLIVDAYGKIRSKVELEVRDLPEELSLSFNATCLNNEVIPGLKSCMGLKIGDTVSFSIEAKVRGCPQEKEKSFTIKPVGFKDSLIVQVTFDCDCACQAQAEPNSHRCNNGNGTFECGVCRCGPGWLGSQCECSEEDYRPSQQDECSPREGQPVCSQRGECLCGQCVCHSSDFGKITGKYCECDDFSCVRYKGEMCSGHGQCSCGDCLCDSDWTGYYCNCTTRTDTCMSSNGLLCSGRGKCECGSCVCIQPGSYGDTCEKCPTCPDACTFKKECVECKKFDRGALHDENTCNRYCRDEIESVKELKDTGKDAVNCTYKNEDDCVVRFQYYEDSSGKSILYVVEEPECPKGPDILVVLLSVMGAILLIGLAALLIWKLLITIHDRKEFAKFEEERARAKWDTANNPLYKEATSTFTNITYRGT
Sequence of Integrin alpha-V/beta-3 (P06756 31-889 limits assumed): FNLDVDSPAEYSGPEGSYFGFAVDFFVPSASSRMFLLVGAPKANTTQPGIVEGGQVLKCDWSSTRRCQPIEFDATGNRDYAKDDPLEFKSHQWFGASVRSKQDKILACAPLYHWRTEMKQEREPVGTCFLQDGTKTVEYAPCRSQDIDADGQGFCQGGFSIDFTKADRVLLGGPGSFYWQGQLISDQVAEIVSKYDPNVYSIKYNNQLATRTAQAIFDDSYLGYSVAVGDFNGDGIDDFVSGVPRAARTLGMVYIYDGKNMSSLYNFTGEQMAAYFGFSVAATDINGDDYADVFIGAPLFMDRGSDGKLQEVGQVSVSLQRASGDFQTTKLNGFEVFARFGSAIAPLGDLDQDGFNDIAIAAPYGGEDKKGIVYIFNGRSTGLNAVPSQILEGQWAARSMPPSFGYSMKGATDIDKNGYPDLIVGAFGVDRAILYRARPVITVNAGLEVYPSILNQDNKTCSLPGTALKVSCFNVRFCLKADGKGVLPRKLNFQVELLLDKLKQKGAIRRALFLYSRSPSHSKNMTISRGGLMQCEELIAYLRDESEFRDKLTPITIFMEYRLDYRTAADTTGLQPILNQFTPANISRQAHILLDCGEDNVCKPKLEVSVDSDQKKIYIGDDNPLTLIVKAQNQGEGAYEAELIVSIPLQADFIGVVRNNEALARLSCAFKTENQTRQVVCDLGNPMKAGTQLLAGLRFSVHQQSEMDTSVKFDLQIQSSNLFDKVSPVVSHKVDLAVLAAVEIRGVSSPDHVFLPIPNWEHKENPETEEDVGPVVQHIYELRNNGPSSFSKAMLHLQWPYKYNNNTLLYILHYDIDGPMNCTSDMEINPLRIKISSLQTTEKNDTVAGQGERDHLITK
Sequence of Integrin alpha-V/beta-3 (P06756 891-1048 limits assumed): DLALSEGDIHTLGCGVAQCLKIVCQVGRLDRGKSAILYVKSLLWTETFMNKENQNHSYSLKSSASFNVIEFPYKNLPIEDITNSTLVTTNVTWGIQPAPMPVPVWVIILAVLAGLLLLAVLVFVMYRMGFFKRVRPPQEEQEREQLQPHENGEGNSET

Integrin alpha-5/beta-1 = Integrin alpha-5/beta-1 (Homo sapiens, UniProt P05556+P08648); experiment: Inhibition of integrin alpha-5-beta-1-mediated K562 cell adhesion to fibronectin; assay type: cell-based
Sequence of Integrin alpha-5/beta-1 (P05556 21-798 limits assumed): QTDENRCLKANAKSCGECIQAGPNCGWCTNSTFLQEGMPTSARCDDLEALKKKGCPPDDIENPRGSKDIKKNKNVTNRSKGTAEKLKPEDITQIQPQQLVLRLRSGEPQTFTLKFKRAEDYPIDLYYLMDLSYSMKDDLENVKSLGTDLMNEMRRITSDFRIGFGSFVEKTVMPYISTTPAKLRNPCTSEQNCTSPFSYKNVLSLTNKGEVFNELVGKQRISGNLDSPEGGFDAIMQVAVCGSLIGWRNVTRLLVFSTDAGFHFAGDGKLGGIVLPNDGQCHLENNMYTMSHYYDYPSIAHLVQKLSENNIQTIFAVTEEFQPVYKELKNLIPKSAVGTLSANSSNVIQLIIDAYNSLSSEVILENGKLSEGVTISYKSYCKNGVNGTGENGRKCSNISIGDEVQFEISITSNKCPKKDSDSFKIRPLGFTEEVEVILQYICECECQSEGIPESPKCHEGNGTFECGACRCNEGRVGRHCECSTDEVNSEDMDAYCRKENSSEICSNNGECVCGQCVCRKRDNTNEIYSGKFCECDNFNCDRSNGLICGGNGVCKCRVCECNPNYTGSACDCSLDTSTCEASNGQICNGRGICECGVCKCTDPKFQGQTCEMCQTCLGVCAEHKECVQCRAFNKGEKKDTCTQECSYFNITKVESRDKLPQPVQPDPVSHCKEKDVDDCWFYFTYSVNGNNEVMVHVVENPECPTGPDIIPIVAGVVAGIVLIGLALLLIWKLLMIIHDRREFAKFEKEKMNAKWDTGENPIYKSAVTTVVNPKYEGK
Sequence of Integrin alpha-5/beta-1 (P08648 42-894 limits assumed): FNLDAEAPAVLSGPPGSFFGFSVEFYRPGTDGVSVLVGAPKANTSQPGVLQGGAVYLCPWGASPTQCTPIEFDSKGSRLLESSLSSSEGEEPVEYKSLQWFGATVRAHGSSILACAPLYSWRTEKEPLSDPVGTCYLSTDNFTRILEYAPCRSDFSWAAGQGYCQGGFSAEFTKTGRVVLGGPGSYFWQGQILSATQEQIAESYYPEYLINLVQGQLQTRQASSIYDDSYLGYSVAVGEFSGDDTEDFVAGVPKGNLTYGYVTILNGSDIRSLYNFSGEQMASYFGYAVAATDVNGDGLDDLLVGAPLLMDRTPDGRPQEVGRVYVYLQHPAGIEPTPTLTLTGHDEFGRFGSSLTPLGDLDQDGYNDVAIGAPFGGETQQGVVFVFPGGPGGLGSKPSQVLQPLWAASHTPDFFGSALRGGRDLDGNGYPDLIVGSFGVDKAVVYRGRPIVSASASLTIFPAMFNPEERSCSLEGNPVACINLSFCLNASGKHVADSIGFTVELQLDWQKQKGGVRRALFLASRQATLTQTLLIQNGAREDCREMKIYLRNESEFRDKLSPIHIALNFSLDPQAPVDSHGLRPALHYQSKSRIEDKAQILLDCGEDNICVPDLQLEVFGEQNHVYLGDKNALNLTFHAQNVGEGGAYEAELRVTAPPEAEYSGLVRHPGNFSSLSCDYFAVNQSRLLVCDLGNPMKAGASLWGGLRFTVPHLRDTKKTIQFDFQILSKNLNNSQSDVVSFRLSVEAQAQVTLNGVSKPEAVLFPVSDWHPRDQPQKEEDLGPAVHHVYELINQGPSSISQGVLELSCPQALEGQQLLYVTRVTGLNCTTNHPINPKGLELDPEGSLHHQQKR
Sequence of Integrin alpha-5/beta-1 (P08648 895-1049 limits assumed): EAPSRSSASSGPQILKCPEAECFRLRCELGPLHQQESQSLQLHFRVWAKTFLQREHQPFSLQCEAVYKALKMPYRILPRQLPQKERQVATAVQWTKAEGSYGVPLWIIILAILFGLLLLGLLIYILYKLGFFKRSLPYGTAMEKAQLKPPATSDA

Row | IC50 (Integrin alpha-V/beta-3) [µM] | IC50 (Integrin alpha-5/beta-1) [µM] | Compound
1 | > 1000 | > 1000 | CCCN(C(=O)C(CC(=O)O)C(=O)O)C1=C(C)CC(c2ccccc2)N(Cc2ccc(C(=N)N)cc2)C1=O (configuration not stated)
2 | 0.6 | 0.17 | CCCN(C(=O)CC(=O)O)C1=C(C)CC(c2ccccc2)N(Cc2ccc(N)cc2)C1=O (configuration not stated)
3 | 45 | > 1000 | CCCN(C(=O)C(CC(=O)OC)C(=O)O)C1=C(C)CC(c2ccccc2)N(Cc2ccc(N)cc2)C1=O (configuration not stated)
4 | > 1000 | > 1000 | CCCN(C(=O)C(CC(=O)O)C(=O)O)C1=C(C)CC(c2ccccc2)N(Cc2ccc(N)cc2)C1=O (configuration not stated)
5 | 0.038 | 0.043 | CCCN(C(=O)CC(=O)O)C1=C(C)CC(c2ccccc2)N(CCCCN)C1=O (configuration not stated)
6 | > 1000 | > 1000 | CCCN(C(=O)CCN)C1=C(C)CC(c2ccccc2)N(CCC(=O)O)C1=O (configuration not stated)
7 | > 1000 | > 1000 | CCCN(C(=O)CCCCCN)C1=C(C)CC(c2ccccc2)N(CCC(=O)O)C1=O (configuration not stated)
8 | > 1000 | > 1000 | CCCN(C(=O)CC(=O)O)C1=C(C)CC(c2ccc(C(=N)N)cc2)N([C@@H](C)c2ccc(OC)cc2)C1=O (some centres not stated)
9 | 120 | > 1000 | CCCN(C(=O)CC(=O)O)C1=C(C)CC(c2ccccc2)N(Cc2ccc(C(=N)N)cc2)C1=O (configuration not stated)
10 | 0.24 | > 1000 | CCCN(C(=O)CC(=O)O)C1=C(C)C[C@@H](c2ccc(N)cc2)N([C@@H](C)c2ccc(OC)cc2)C1=O
11 | > 1000 | > 1000 | CCCN(C(=O)CCC(=O)O)C1=C(C)CC(c2ccccc2)N(Cc2ccc(C(=N)N)cc2)C1=O (configuration not stated)
12 | > 1000 | > 1000 | CCCN(C(=O)C(CC(=O)OC)C(=O)O)C1=C(C)CC(c2ccccc2)N(Cc2ccc(C(=N)N)cc2)C1=O (configuration not stated)
13 | 15.1 | 35.1 | CCCN(C(=O)CC(=O)O)C1=C(C)C[C@H](c2ccccc2)N([C@@H](C)c2ccc(N)cc2)C1=O
14 | 0.071 | 0.057 | CCCN(C(=O)CC(=O)O)C1=C(C)C[C@@H](c2ccccc2)N([C@@H](C)c2ccc(N)cc2)C1=O
15 | 21 | 0.018 | CCCN(C(=O)CC(=O)O)C1=C(C)C[C@H](c2ccc(N)cc2)N([C@@H](C)c2ccc(OC)cc2)C1=O
16 | 0.025 | 259 | CC(=O)N[C@@H](CC(=O)O)C(=O)N[C@@H](CCCNC(=N)N)C(=O)N[C@@H](CC(C)C)C(=O)N[C@@H](CC(=O)O)C(=O)N[C@@H](CO)C(=O)O (Ac-DRLDS-OH)
